Assay results: patent US6716836B2, “Non-nucleoside reverse transcriptase inhibitors” (Boehringer Ingelheim (Canada) Ltd., priority 2001, dated 2004)

Experiments:
HIV-1 RT wild type (WT) = target: T1, HIV-1 RT wild type (WT) (Human immunodeficiency virus type 1 group M subtype B, UniProt P04585); experiment: Reverse Transcriptase (RT) assay, wild type enzyme; assay type: biochemical
T1 construct: Heterodimeric RT was eluted using a descending gradient; made in house; host or cells: E. coli
Description: (§1) Among the enzymes for which Human Immunodeficiency Virus (HIV-1) encodes is a reverse transcriptase (1), so-named because it transcribes a DNA copy from an RNA template. This activity can be quantitatively measured in a cell-free enzyme assay, which has been previously described (2), and is based upon the observation that reverse transcriptase is able to use a synthetic template poly r(C) primed with oligo d(G) to transcribe a radio-labelled, acid-precipitable DNA strand utilising ^3H-dGTP as a substrate. The assay described below utilises the wild type (WT) enzyme, which is the predominant form of the enzyme observed with patients infected with HIV-1. Utilisation of mutant RT enzymes (for example, Y181C, prepared by site-directed mutagenesis in which the tyrosine residue at codon 181 has been replaced by a cysteine residue, or the mutants K103N, V106A and Y188C) and analogous assay conditions allows compounds to be evaluated for their effectiveness at inhibiting the mutant enzymes.
(§2) The HIV-1 RT expression clone, pKRT2, was obtained from Yale University (3). An overnight culture, grown in 2×YT medium (37° C., 225 rpm) (4), supplemented with 100 μg/mL ampicillin for positive selection was used to inoculate the 2×YT medium. The culture was incubated (37° C., 225 rpm) until it reached an OD600 of 0.6-0.9. At that time, the repressor inhibitor IPTG (isopropyl P-D-thiogalactopyranoside) was added to 0.5 mM, and the mixture was incubated for an additional 2 hours.
(§3) Purification of recombinant reverse transcriptase was performed using a combination of methods previously described (5). This procedure is summarised briefly as follows: E. Coli containing RT-1 wt or RT-1 (Y181 C) were suspended in 50 mM MES, pH 6.0 containing 10% glycerol, lysed in a French press, centrifuged, and the supernates discarded. Lysate pellets were extracted with buffer A (50 mM MES, pH 6.0, 100 mM KCl, 50 mM KPi, 10% glycerol, 0.02% hexyl-β-glucoside), and re-centrifuged; nucleic acid in supernates was precipitated with 0.1% polyethylenimine. […] Bound RT was eluted with a gradient of 0 to 1.0M
(§4) (NH4)2 SO4 in buffer B. Heparin-Sepharose fractions containing RT were concentrated (Amicon YM-30 membrane), combined with equal volumes of 2.0M (NH4)2SO4 in buffer B and injected onto a 21.5×150 mm TSK Phenyl-5PW HIC HPLC column (Phenomenex). Heterodimeric RT was eluted using a descending gradient of 1.0M to 0M (NH4)2SO4 in buffer B, concentrated, and stored at 4° C.
(§5) The 2.4× concentrated stock reaction mixture was aliquoted and stored at −20° C. The mixture is stable and can be thawed for use in each assay. This enzyme assay has been adapted to a 96 well microtiter plate system, and has been previously described (6). Tris buffer (50 mM, pH 7.8), vehicle (solvent diluted to match the compound dilution), or compounds in vehicle were dispensed into 96-well microtiter plates (10 μL/well; 3 wells/compound). The HIV-1 RT enzyme was thawed, diluted in 50 mM Tris pH 7.8 containing 0.05% Chaps to give 1.5 nM enzyme and 25 μL were dispensed per well. Ten μL of 0.5M EDTA were added to the first three wells of the microtiter plate. EDTA chelates the Mg^2+ present and prevents reverse transcription. This group served as background polymerisation, which was subtracted, from all other groups. Twenty-five μl of the 2.4× reaction mixture was added to all wells and the assay was allowed to incubate at room temperature for 30 minutes. The assay was terminated by precipitating the DNA in each well with 60 μL of sodium pyrophosphate (2% w/v) in 10% trichloroacetic acid (TCA) (10% w/v). The microtiter plate was incubated for 15 minutes at 4° C. and the precipitate was harvested onto #30 glass fibre paper (Schleicher & Schuell) using a Tomtech 96-well harvester. The filters were dried, placed in plastic bags with Betaplate scintillation cocktail (Pharmacia/LKB) and counted in the Betaplate counter (Pharmacia/LKB).
(§6) The calculation for percent inhibition is as follows: [formula] […]

[1] = target: T2, HIV-1 RT double mutant K103N/Y181C (Human immunodeficiency virus type 1 group M subtype B, UniProt P04585, K690N/Y768C); experiment: Reverse Transcriptase (RT) assay, double mutant enzyme; assay type: biochemical
T2 construct: Heterodimeric RT was eluted using a descending gradient; made in house; host or cells: E. coli (inferred; the text describes only wild type and Y181C preparations)
Description: as §1, §2, §3, §4, §5, §6

Row | Compound | IC50 (HIV-1 RT wild type (WT)) [nM] | IC50 [1] [nM]
1 | Cc1ccnc2c1NC(=O)c1cc(CCOc3cccc4c3CS(=O)(=O)N4Cc3cc[n+]([O-])cc3)cnc1N2C1CC1 [Compound 144] | < 100 | 100 to 1000
2 | CCN1c2ncc(CCOc3cccc4c3CCS(=O)(=O)N4CS(C)(=O)=O)cc2C(=O)N(C)c2cccnc21 [Compound 627] | < 100 | < 100
3 | CCN1c2ncc(CCOc3cccc4c3CS(=O)(=O)N4C)cc2C(=O)N(C)c2ccc(C)nc21 [Compound 114] | < 100 | < 100
4 | CCN1c2ncc(COc3cccc4c3C(C)S(=O)(=O)N4C)cc2C(=O)N(C)c2ccc(F)nc21 (stereo not drawn) [Compound 108] | 100 to 1000 | –
5 | CCN1c2ncc(CCOc3cccc4c3CCNS4(=O)=O)cc2C(=O)N(C)c2cccnc21 [Compound 712] | < 100 | < 100
6 | CCN1c2ncc(CCOc3cccc4c3CS(=O)(=O)N4Cc3cc[n+]([O-])cc3)cc2C(=O)Nc2c(C)cc(F)nc21 [Compound 145] | < 100 | < 100
7 | CCN1c2ncc(CCOc3ccc4c(c3)CNS4(=O)=O)cc2C(=O)Nc2c(C)cc(F)nc21 [Compound 310] | < 100 | 100 to 1000
8 | CCN1c2ncc(CCOc3cccc4c3CS(=O)(=O)N4CCOc3cc[n+]([O-])cc3)cc2C(=O)N(C)c2cccnc21 [Compound 143] | < 100 | < 100
9 | CCN1c2ncc(CCOc3cccc4c3CCS(=O)(=O)N4C(=O)N(C)OC)cc2C(=O)N(C)c2cccnc21 [Compound 611] | < 100 | < 100
10 | CCN1c2ncc(CCOc3ccc4c(c3)C(C)(C)S(=O)(=O)N4)cc2C(=O)Nc2c(C)cc(F)nc21 [Compound 409] | < 100 | 100 to 1000
11 | CCN1c2ncc(CCOc3cccc4c3CS(=O)(=O)N4CCOc3ccncc3)cc2C(=O)N(C)c2cccnc21 [Compound 142] | < 100 | < 100
12 | CCN1c2ncc(CCOc3cccc4c3CS(=O)(=O)N4CC(=O)N(C)O)cc2C(=O)N(C)c2cccnc21 [Compound 134] | < 100 | < 100
13 | CCN1c2ncc(CCOc3cccc4c3CCS(=O)(=O)N4Cc3ccc[n+]([O-])c3)cc2C(=O)N(C)c2cccnc21 [Compound 632] | < 100 | < 100
14 | CCN1c2ncc(CCOc3cccc4c3C=CS(=O)(=O)N4CC)cc2C(=O)N(C)c2cccnc21 [Compound 807] | < 100 | < 100
15 | CCN(CC)C(=O)N1c2cccc(OCCc3cnc4c(c3)C(=O)N(C)c3cccnc3N4CC)c2CCS1(=O)=O [Compound 610] | < 100 | < 100
16 | CCN1c2ncc(CCOc3cccc4c3CCS(=O)(=O)N4C(=O)N3CCN(C)CC3)cc2C(=O)N(C)c2cccnc21 [Compound 620] | < 100 | < 100
17 | CCN1c2ncc(COc3cccc4c3CS(=O)(=O)N4C)cc2C(=O)N(C)c2ccc(F)nc21 [Compound 107] | < 100 | –
18 | CCN1c2ncc(CCOc3cccc4c3CS(=O)(=O)N4C)cc2C(=O)N(C)c2ccc(F)nc21 [Compound 111] | < 100 | < 100
19 | Cc1cc(F)nc2c1NC(=O)c1cc(CCOc3cccc4c3CS(=O)(=O)N4C)cnc1N2C1CC1 [Compound 118] | < 100 | 100 to 1000
20 | CCN1c2ncc(COc3cccc4c3CS(=O)(=O)N4)cc2C(=O)N(C)c2ccc(F)nc21 [Compound 104] | > 1000 | –
21 | CCN1c2ncc(COc3cccc4c3CS(=O)(=O)N4Cc3cc[n+]([O-])cc3)cc2C(=O)N(C)c2ccc(F)nc21 [Compound 148] | < 100 | –
22 | CCN1c2ncc(CCOc3cccc4c3CS(=O)(=O)N4)cc2C(=O)Nc2c(C)ccnc21 [Compound 120] | 100 to 1000 | –
